Data reported in BindingDB's records for doi:10.1016/j.ejmech.2018.04.062 (Lindsley F. Kimball Research Institute, 2018).

Tests used:
[1] = biological target: T1, Cytochrome P450 1A2 (Homo sapiens, UniProt P05177); experiment: Inhibition of human liver microsome CYP1A2 using phenacetin as substrate incubated for 20 mins by LC-MS/MS analysis
T1 sequence (P05177 whole entry): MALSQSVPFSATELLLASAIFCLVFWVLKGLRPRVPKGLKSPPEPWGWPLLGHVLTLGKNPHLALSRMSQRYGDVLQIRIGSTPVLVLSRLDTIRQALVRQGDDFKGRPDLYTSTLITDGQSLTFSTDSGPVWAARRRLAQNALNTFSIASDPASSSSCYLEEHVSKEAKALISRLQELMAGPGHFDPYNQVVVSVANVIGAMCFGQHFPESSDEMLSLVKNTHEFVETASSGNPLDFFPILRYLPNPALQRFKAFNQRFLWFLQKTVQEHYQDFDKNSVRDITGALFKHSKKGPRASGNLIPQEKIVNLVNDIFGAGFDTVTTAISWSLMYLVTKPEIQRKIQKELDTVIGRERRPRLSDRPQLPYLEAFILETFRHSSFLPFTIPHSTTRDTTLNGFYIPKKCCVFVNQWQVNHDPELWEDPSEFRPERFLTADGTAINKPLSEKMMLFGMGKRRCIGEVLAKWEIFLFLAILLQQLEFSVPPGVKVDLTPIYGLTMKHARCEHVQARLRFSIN

[2] = biological target: T2, Cytochrome P450 2C8 (Homo sapiens, UniProt P10632); experiment: Inhibition of human liver microsome CYP2C8 using paclitaxel as substrate incubated for 20 mins by LC-MS/MS analysis
T2 sequence (P10632 whole entry): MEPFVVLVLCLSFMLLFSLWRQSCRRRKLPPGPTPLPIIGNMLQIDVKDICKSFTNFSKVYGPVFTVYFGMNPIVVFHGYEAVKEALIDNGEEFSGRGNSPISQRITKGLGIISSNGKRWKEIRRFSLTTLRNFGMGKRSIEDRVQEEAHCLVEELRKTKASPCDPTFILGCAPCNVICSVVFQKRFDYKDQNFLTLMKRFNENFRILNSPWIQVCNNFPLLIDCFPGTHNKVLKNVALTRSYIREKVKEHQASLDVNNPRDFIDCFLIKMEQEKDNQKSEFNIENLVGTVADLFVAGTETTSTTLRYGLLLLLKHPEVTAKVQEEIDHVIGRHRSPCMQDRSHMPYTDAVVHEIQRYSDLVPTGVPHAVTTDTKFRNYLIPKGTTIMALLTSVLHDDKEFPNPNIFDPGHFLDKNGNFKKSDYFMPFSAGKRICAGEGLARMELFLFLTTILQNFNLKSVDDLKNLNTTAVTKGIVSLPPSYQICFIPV

[3] = biological target: Cytochrome P450 2D6 (Homo sapiens, UniProt P10635); experiment: Inhibition of human liver microsome CYP2D6 using bufuralol as substrate incubated for 20 mins by LC-MS/MS analysis
Sequence of Cytochrome P450 2D6 (P10635 whole entry): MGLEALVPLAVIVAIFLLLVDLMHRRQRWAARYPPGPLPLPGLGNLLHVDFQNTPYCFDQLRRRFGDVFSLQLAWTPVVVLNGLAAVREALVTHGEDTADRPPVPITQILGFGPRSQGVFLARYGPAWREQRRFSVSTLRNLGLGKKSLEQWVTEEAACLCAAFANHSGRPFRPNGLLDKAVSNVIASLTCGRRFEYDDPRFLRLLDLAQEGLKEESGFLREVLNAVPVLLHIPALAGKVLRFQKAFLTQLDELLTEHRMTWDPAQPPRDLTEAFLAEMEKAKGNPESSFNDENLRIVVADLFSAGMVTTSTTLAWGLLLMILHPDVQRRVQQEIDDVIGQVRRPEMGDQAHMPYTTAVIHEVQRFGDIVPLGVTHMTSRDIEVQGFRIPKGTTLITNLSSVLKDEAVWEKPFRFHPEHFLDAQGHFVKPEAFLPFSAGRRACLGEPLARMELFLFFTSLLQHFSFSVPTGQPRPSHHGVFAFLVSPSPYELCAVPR

[4] = biological target: Potassium voltage-gated channel subfamily H member 2 (Homo sapiens, UniProt Q12809); experiment: Inhibition of human ERG transfected in HEK293 cells assessed as reduction in channel current at -80 mV holding potential by whole-cell patch clamp method
Sequence of Potassium voltage-gated channel subfamily H member 2 (Q12809 whole entry): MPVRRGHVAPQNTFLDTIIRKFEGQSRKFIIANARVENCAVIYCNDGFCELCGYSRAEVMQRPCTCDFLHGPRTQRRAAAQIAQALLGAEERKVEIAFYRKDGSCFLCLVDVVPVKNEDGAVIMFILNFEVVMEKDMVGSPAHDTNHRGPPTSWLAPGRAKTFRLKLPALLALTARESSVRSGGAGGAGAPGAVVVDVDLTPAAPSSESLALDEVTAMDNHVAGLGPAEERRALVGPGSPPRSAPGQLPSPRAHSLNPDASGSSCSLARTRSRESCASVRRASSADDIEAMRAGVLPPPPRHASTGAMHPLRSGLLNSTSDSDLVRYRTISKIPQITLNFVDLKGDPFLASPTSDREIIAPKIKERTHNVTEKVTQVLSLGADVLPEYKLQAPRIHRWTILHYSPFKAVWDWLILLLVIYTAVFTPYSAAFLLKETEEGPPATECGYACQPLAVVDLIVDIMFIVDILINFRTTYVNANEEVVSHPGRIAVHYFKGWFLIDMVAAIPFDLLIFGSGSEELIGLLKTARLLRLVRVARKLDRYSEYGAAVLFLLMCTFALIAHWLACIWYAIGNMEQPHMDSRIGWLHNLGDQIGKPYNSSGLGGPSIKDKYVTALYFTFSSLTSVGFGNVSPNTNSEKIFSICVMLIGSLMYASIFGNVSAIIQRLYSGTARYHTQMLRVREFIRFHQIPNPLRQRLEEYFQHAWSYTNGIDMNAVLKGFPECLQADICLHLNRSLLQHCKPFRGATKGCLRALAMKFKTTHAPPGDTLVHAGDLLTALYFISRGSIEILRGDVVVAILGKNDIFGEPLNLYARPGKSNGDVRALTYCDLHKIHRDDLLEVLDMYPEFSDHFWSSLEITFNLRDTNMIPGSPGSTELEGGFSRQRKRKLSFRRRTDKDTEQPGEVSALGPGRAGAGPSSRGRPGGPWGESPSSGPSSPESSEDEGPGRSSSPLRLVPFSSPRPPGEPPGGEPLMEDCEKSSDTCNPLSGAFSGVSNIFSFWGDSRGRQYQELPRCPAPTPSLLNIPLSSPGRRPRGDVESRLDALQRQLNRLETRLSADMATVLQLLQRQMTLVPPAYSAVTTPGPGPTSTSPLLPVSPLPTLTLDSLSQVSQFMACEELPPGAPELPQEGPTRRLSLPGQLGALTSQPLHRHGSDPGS

[5] = biological target: Cytochrome P450 2C9 (Homo sapiens, UniProt P11712); experiment: Inhibition of human liver microsome CYP2C9 using diclofenac as substrate incubated for 20 mins by LC-MS/MS analysis
Sequence of Cytochrome P450 2C9 (P11712 whole entry): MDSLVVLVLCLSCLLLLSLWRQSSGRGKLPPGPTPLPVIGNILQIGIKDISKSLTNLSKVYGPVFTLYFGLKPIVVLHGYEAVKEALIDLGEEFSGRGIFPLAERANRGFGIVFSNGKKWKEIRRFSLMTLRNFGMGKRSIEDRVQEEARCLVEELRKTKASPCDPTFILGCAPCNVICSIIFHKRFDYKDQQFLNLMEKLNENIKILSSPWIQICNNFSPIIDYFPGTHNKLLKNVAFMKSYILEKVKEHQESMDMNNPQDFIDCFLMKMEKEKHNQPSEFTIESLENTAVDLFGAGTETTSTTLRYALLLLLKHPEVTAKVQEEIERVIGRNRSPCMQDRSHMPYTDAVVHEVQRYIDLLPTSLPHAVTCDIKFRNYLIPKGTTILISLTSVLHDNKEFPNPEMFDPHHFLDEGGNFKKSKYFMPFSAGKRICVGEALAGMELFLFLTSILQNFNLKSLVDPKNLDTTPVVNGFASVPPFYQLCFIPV

- IC50 [1]: > 25 µM
- IC50 [2]: > 25 µM
- IC50 [3]: > 25 µM
- IC50 [4]: 3 µM
- IC50 [5]: > 25 µM
Structure (SMILES): NC[C@H](NC(=O)c1ccc(-c2ccc(C(F)(F)F)c(F)c2)[nH]1)c1nc(CO)cs1
